Measurements published in patent publication US10966426B2, “Herbicidal compositions comprising phenylpyrimidines” (BASF SE, priority 2016, dated 2021).
Where two headings read alike, the source gives them in different places.

Experiments:
Format in all cases: in vivo
Setaria viridis = assay: greenhouse post-emergence treatment, SETVI; conditions: Setaria viridis, 480 h, 35 gai/ha (SL 480 g/l), 20 DAT, SETVI, Table X7, read-out: % activity, solo application
Method in brief: (§1)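 Seeds sown per species in loamy sand substrate (about 3.0% humus); some raised separately and transplanted shortly before treatment. Treatments applied in water post-emergence, plants held at 10-25° C. or 20-35° C. by species, then scored after 2 to 4 weeks, where 100 means total kill and 0 no damage.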

Lolium multiflorum = assay: greenhouse post-emergence treatment, LOLMU; conditions: Lolium multiflorum, 480 h, 20 DAT, LOLMU
Method in brief: as §1

Poa annua = assay: greenhouse post-emergence treatment, POAAN; conditions: Poa annua, 480 h, 20 DAT, POAAN
Method in brief: (§2)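 Visual herbicidal effect (0–100) recorded over a 2 to 4 week test period after foliar treatment at plant heights of 3 to 15 cm. Expected combination effects derived by the Colby formula from single-component effects X and Y.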

Brachiaria decumbens = assay: greenhouse post-emergence treatment, BRADC; conditions: Urochloa decumbens, 480 h, 20 DAT, BRADC
Method in brief: as §2

Alopecurus myosuroides = assay: greenhouse post-emergence treatment, ALOMY; conditions: Alopecurus myosuroides, 480 h, 20 DAT, ALOMY
Method in brief: as §1

Helianthus annuus = assay: greenhouse post-emergence treatment, HELAN; conditions: Helianthus annuus, 480 h, 20 DAT, HELAN, dicamba SL 480 g/l solo 70 gai/ha
Method: The culture containers used were plastic pots containing loamy sand with approximately 3.0% of humus as substrate. The seeds of the test plants were sown separately for each species.
For the post-emergence treatment, the test plants were grown to a plant height of from 3 to 15 cm, depending on the plant habit, and only then treated with the active compounds which had been suspended or emulsified in water. To this end, the test plants were either sown directly, and grown in the same containers, or they were first grown separately as seedlings and transplanted into the test containers a few days prior to treatment.
Depending on the species, the plants were kept at 10-25° C. and 20-35° C., respectively.
The test period extended over 2 to 4 weeks. During this time, the plants were tended and their response to the individual treatments was evaluated.
Evaluation was carried out using a scale from 0 to 100. 100 means no emergence of the plants, or complete destruction of at least the above-ground parts, and 0 means no damage or normal course of growth. A good herbicidal activity is given at values of at least 70, and very good herbicidal activity is given at values of at least 85.
The respective stated components A and B, and if appropriate, C were formulated as a 10% by weight strength emulsion concentrate and, with addition of the amount of solvent system, introduced into the spray liquor used for applying the active compound. In the examples, the solvent used was water.
In the examples below, using the method of S. R. Colby (1967) “Calculating synergistic and antagonistic responses of herbicide combinations”, Weeds 15, p. 22ff., the value E, which is expected if the activity of the individual active compounds is only additive, was calculated. E=X+Y−(X·Y/100) where X=effect in percent using herbicide A at an application rate a; • Y=effect in percent using herbicide B at application rate b; • E=expected effect (in %) of herbicide A+herbicide B at application rates a+b.

Bromus sterilis = assay: greenhouse post-emergence treatment, BROST; conditions: Bromus sterilis, 480 h, 20 DAT, BROST
Method in brief: as §1

Echinocloa crus-galli = assay: greenhouse post-emergence treatment, ECHCG; conditions: Echinochloa crus-galli, 480 h, 20 DAT, ECHCG, dicamba SL 480 g/l solo 35 gai/ha
Method in brief: (§3)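 Foliar application to greenhouse-grown plants 3–15 cm tall in humus-containing loamy sand; response assessed on a 0–100 scale after 2–4 weeks, with Colby's E=X+Y−(X·Y/100) as the additive expectation.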

Papaver rhoeas = assay: greenhouse post-emergence treatment, PAPRH; conditions: Papaver rhoeas, 480 h, 20 DAT, PAPRH
Method in brief: as §3

Matricaria chamomilla = assay: greenhouse post-emergence treatment, MATCH; conditions: Matricaria chamomilla, 480 h, 70 gai/ha (SL 480 g/l), 20 DAT, MATCH, Table X7, read-out: % activity, solo application
Method in brief: as §3

Stellaria media = assay: greenhouse post-emergence treatment, STEME; conditions: Stellaria media, 480 h, 20 DAT, STEME, dicamba SL 480 g/l solo 35 gai/ha
Method in brief: as §2

Digitaria sanguinalis = assay: greenhouse post-emergence treatment, DIGSA; conditions: Digitaria sanguinalis, 480 h, 20 DAT, DIGSA
Method in brief: as §1

Galium aparine = assay: greenhouse post-emergence treatment, GALAP; conditions: Galium aparine, 480 h, 20 DAT, GALAP, dicamba SL 480 g/l solo 70 gai/ha
Method in brief: as §3

[1] = dicamba SL 480 g/l solo 17.5 gai/ha
[2] = dicamba SL 480 g/l solo 35 gai/ha
[3] = dicamba SL 480 g/l solo 70 gai/ha
[4] = dicamba SL 480 g/l solo 140 gai/ha
[5] = 35 gai/ha (SL 480 g/l), Table X7, read-out: % activity, solo application

Compound: COc1c(Cl)ccc(Cl)c1C(=O)O [Dicamba, dicamba]
- inhibition at 35 g/ha (Setaria viridis): 0%
- inhibition at 17.5 g/ha (Lolium multiflorum; [1]): 0%
- inhibition at 35 g/ha (Lolium multiflorum; [2]): 0%
- inhibition at 17.5 g/ha (Poa annua; [1]): 0%
- inhibition at 35 g/ha (Poa annua; [2]): 0%
- inhibition at 70 g/ha (Poa annua; [3]): 0%
- inhibition at 140 g/ha (Poa annua; [4]): 0%
- inhibition at 17.5 g/ha (Brachiaria decumbens; [1]): 0%
- inhibition at 35 g/ha (Brachiaria decumbens; dicamba SL 480 g/l solo 35 gai/ha, read-out: % activity): 0%
- inhibition at 140 g/ha (Brachiaria decumbens; [4]): 30%
- inhibition at 35 g/ha (Brachiaria decumbens; [5]): 0%
- inhibition at 140 g/ha (Alopecurus myosuroides; dicamba SL 480 g/l solo 140 gai/ha, read-out: % activity): 0%
- inhibition at 35 g/ha (Alopecurus myosuroides; [5]): 0%
- inhibition at 70 g/ha (Alopecurus myosuroides; 70 gai/ha (SL 480 g/l), Table X7, read-out: % activity, solo application): 0%
- inhibition at 140 g/ha (Alopecurus myosuroides; 140 gai/ha (SL 480 g/l), Table X7, read-out: % activity, solo application): 0%
- inhibition at 280 g/ha (Alopecurus myosuroides; 280 gai/ha (SL 480 g/l), Table X7, read-out: % activity, solo application): 5%
- inhibition at 70 g/ha (Helianthus annuus): 85%
- inhibition at 17.5 g/ha (Bromus sterilis; [1]): 0%
- inhibition at 35 g/ha (Bromus sterilis; [2]): 0%
- inhibition at 70 g/ha (Bromus sterilis; [3]): 0%
- inhibition at 140 g/ha (Bromus sterilis; [4]): 0%
- inhibition at 35 g/ha (Echinocloa crus-galli): 0%
- inhibition at 17.5 g/ha (Papaver rhoeas; [1]): 20%
- inhibition at 35 g/ha (Papaver rhoeas; [2]): 30%
- inhibition at 70 g/ha (Matricaria chamomilla): 0%
- inhibition at 35 g/ha (Stellaria media): 80%
- inhibition at 17.5 g/ha (Digitaria sanguinalis; [1]): 0%
- inhibition at 35 g/ha (Digitaria sanguinalis; [2]): 0%
- inhibition at 70 g/ha (Digitaria sanguinalis; [3]): 0%
- inhibition at 140 g/ha (Digitaria sanguinalis; [4]): 30%
- inhibition at 70 g/ha (Galium aparine): 85%
